The target of one test is EZH2 (Homo sapiens, UniProt Q15910). Description: EZH2 nuc BSA Brij 1.5 (IC50): rPRC2, biotinylated oligonucleosome substrate, 3H SAM FlashPlate. As to conditions: 2 nM EZH2, 0.2 μM biotinylated oligonucleosomes, 0.2 μM 3H SAM, 3.6 μM H3K27me3 peptide. Type of test: biochemical. The protocol:
EZH2 Nuc BSA Brij 1.5 (IC50):
Assays were carried out by mixing rPRC2 together with biotinylated oligonucleosome substrates in the presence of the radio-labeled enzyme co-factor, S-adenosyl-L-methionine (^3H SAM) (Perkin Elmer) and monitoring the enzymatically mediated transfer of tritiated methyl groups from ^3H SAM to histone lysine residues. The amount of resulting tritiated methyl histone product was measured by first capturing the biotinylated oligonucleosomes in streptavidin (SAV) coated FlashPlates (Perkin Elmer), followed by a wash step to remove un-reacted ^3H SAM, and then counting on a TopCount NXT 384 well plate scintillation counter (Perkin Elmer). The final assay conditions for EZH2 were as follows: 50 mM Tris Buffer pH 8.5, 1 mM DTT, 69 μM Brij-35 detergent, 5.0 mM MgCl2, 0.1 mg/mL BSA, 0.2 μM ^3H SAM, 0.2 μM biotinylated oligonucleosomes, 3.6 μM H3K27me3 peptide and 2 nM EZH2.
Compound IC50 Measurements were Obtained as Follows:
Compounds were first dissolved in 100% DMSO as 10 mM stock solutions. Ten point dose response curves were generated by dispensing varying amounts of the 10 mM compound solution in 10 wells of the 384 well plate (Echo; Labcyte), pure DMSO was then used to backfill the wells to insure all wells have the same amount of DMSO. A 12.5 μL volume of the HMT enzyme, H3K27me3 peptide and oligonucleosome substrate in assay buffer was added to each well of the assay plate using a Multidrop Combi (ThermoFisher). Compounds were pre-incubated with the enzyme for 20 min, followed by initiation of the methyltransferase reaction by addition of 12.5 μL of ^3H SAM in assay buffer (final volume=25 μL). The final concentrations of compounds ranged from a top default concentration of 80 μM down to 0.16 μM in ten 2-fold dilution steps. Reactions were carried out for 60 minutes and quenched with 20 μL per well of 1.96 mM SAH, 50 mM Tris pH 8.5, 200 mM EDTA. Stopped reactions were transferred to SAV coated Flashplates (Perkin Elmer), incubated for 120 min, washed with a plate washer, and then read on the TopCount NXT (1.0 min/well) to measure the amount of methyl histone product formed during the reaction. The amount of methyl histone product was compared with the amount of product formed in the 0% and 100% inhibition control wells allowing the calculation of % Inhibition in the presence of the individual compounds at various concentrations. IC50's were computed using a 4 parameter fit non-linear curve fitting software package (XLFIT, part of the database package, ActivityBase (IDBS)) where the four parameters were IC50, Hill slope, pre-transitional baseline (0% INH), and post-transitional baseline (100% INH); with the latter two parameters being fixed to zero and 100%, respectively, by default.

The test system of another test is H3K27me3 mark. Description: H3K27me3 Alpha Hela Assay (AlphaLISA). Type of test: cell-based. Particulars: Hela cells, read-out: EZH2 Cell H3K27me3 Alpha HeLa (EC50 K27me3). The protocol:
EC50 Measurements for Inhibitors in HeLa Cell Assays
H3K27me3 Alpha Hela Assay (AlphaLISA). Ten different doses of each test compound (in a series of 3-fold dilutions) were plated in duplicate 384-well tissue culture treated plates (Catalog #781080; Greiner Bio One; Monroe, N.C.). Hela cells grown in culture were trypsinized and counted using a Countess® cell counter (Catalog # C10281; Life Technologies, Grand Island, N.Y.). Cell were diluted to 67,000 cells per mL in 10% DMEM (Catalog #10569-010 Life Technologies, Grand Island, N.Y.) and 15 μL (1,000 cells) were plated into each well using the Biotek MicroFlo™ Select Dispenser (BioTek Instruments, Inc. Vermont, USA),) of the 384-well plate. Plates were incubated at 37° C./5% CO2 for 72 hrs. One of the duplicate plates was processed for HeLa assay and the other for viability.
To the plate processed for AlphaLISA was added 5 μL per well Cell-Histone Lysis buffer (1×) (Catalog # AL009F1 Perkin Elmer; Waltham, Mass.) and the plate was incubated at RT for 30 minutes on a plate shaker with low speed (Model#4625-Q Thermo Scientific; Waltham, Mass.). Then, 10 μL per well Histone Extraction buffer (catalog # AL009F2; Perkin Elmer; Waltham, Mass.) was added and the plate further incubated at RT for 20 min on plate shaker with low speed. To each well was then added 10 μL per well of a 5× mix of anti-K27me3 acceptor beads plus Biotinylated anti-Histone H3 (C-ter) Antibody (diluted to 3 nM final) (Catalog #AL118 Perkin Elmer; Waltham, Mass.). Dilution of the acceptor beads and then anti-Histone H3 was with 1× Histone Detection buffer (Catalog # AL009F3 Perkin Elmer; Waltham, Mass.) which was produced diluted from the 10× stock provided. The plate was sealed with an aluminum plate sealer and incubated at 23° C. for 60 min. We then added 10 μL 5× solution of Streptavidin Donor beads (Catalog #6760002 Perkin Elmer; Waltham, Mass.) (20 μg/mL final in 1× Histone Detection Buffer), sealed the plate with Aluminum plate sealer and incubated at 23° C. for 30 min. The plates were then read using an EnVision-Alpha Reader (model #2104 Perkin Elmer; Waltham, Mass.).
Data from both assays was analyzed using Assay Assistant (Constellation Pharmaceuticals In-house product) and Activity Base (IDBS Ltd, Surrey, UK) template. Data files were imported to Assay Assistant and assay conditions were specified. A unique Analysis ID was created and the data files exported to Activity Base. An analysis template was created on Activity Base to measure dose-dependent inhibition of H3K27me3 mark and cell viability respectively. Readout of DMSO wells were used to normalize the data. Resulting curves were fitted using Activity base software Model 205 (IDBS Ltd, Surrey, UK). The data was checked for quality, validated and integrated in excel format using SARview (IDBS Ltd, Surrey, UK).

[1] abbreviates: read-out: EZH2 nuc BSA Brij 1.5 (IC50).

This passage reports IC50 and EC50 results from patent US20180037568A1, “MODULATORS OF METHYL MODIFYING ENZYMES, COMPOSITIONS AND USES THEREOF” (Constellation Pharmaceuticals, Inc., priority 2015, published 2018).

Like-named read-outs stand apart in the source and are kept apart here. Bounds are passed on as bounds.

Sequence of EZH2 (Q15910 whole entry): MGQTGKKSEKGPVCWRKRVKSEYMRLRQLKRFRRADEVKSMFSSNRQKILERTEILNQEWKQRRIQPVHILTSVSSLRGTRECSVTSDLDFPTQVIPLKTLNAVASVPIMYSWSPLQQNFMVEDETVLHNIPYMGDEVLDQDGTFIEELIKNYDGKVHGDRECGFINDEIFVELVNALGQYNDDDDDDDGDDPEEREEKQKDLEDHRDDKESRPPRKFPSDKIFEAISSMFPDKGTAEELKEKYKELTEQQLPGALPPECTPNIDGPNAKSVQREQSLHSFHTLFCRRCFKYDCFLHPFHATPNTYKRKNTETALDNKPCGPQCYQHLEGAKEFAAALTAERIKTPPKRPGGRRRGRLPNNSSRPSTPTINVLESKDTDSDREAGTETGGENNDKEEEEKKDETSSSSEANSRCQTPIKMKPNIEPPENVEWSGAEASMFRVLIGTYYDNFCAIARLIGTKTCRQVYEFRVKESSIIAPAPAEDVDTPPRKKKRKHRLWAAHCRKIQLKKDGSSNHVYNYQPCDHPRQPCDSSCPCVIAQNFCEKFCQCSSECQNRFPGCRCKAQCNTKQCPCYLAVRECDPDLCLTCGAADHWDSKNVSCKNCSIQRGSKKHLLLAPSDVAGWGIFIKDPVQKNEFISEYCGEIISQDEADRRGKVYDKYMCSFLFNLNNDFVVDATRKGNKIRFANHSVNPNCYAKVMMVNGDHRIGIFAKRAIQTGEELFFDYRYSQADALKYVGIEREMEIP
Sequence of EZH2 (O75530 whole entry partner): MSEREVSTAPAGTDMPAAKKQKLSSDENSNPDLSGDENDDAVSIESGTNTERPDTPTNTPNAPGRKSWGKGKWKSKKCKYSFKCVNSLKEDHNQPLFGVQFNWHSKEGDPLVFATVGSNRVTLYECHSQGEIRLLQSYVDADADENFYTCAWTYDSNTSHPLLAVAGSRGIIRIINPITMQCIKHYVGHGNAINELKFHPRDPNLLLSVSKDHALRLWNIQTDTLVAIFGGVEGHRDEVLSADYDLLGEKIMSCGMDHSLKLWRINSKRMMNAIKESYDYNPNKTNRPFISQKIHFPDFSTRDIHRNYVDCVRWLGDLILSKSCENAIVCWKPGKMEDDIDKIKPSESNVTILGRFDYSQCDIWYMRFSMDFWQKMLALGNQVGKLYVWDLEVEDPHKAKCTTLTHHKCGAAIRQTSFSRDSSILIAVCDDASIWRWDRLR
Sequence of EZH2 (Q15022 whole entry partner): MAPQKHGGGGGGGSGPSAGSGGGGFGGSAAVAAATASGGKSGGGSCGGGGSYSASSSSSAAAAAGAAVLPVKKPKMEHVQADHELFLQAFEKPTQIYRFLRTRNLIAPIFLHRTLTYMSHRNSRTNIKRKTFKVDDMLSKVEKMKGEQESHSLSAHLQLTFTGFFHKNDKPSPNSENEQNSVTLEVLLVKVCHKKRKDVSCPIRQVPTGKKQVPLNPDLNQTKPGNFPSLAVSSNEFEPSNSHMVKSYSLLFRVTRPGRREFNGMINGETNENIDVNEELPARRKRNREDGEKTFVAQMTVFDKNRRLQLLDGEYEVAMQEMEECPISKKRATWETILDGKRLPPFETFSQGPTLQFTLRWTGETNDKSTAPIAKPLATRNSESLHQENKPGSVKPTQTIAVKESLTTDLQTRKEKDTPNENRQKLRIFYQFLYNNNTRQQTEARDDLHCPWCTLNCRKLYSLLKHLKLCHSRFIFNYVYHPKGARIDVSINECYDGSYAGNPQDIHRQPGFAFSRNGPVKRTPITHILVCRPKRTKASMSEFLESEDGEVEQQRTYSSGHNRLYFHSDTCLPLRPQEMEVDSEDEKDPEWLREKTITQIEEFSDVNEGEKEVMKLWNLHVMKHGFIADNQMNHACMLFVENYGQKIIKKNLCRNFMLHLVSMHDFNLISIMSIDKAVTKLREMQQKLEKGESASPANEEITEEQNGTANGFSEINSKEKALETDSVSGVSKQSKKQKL

As for `COc1cc(C)[nH]c(=O)c1CNC(=O)c1c(C)n(C(C)C2CCN(C)C(=O)C2)c2ccccc12` (stereo not shown) [Compound 11, N-((4-methoxy-6-methyl-2-oxo-1,2-dihydropyridin-3-yl)methyl)-2-methyl-1-(1-(1-methyl-2-oxopiperidin-4-yl)ethyl)-1H-indole-3-carboxamide], the concentration for half-maximal inhibition (IC50) – broadly, the concentration needed to halve the response being measured – against EZH2 (EZH2 nuc BSA Brij 1.5 (IC50)) was less than 100 nM. In addition, the EC50 (usually the concentration at which the effect is half-maximal) in the test with H3K27me3 mark (Homo sapiens, HeLa, 72 h) is more than 2000 nM.
The like results for `COc1cc(C)[nH]c(=O)c1CNC(=O)c1c(C)n(C(C)C2CCN(CC3CC3)C(C(F)(F)F)C2)c2ccccc12` (single isomer, unassigned) [Compound 38, 1-(1-(1-(cyclopropylmethyl)-2-(trifluoromethyl)piperidin-4-yl)ethyl)-N-((4-methoxy-6-methyl-2-oxo-1,2-dihydropyridin-3-yl)methyl)-2-methyl-1H-indole-3-carboxamide] were, in that order, less than 100 nM and more than 2000 nM.
In the case of `COc1cc(C)[nH]c(=O)c1CNC(=O)c1c(C)n(C(C)C2CCNC(C(F)F)C2)c2ccccc12` (single isomer, unassigned) [Compound 37, 1-(1-(2-(difluoromethyl)piperidin-4-yl)ethyl)-N-((4-methoxy-6-methyl-2-oxo-1,2-dihydropyridin-3-yl)methyl)-2-methyl-1H-indole-3-carboxamide], at EZH2 (setting [1]), the IC50 is less than 100 nM. The 50% effective concentration (EC50) with H3K27me3 mark (72 hrs) lay in the range of 400 to 2000 nM.
On EZH2 (EZH2 nuc BSA Brij 1.5 (IC50)), `COc1cc(C)[nH]c(=O)c1CNC(=O)c1c(C)n(C(C)C2CCNC(C(F)(F)F)C2)c2ccccc12` (single isomer, unassigned) [Compound 12, N-((4-methoxy-6-methyl-2-oxo-1,2-dihydropyridin-3-yl)methyl)-2-methyl-1-(1-(2-(trifluoromethyl)piperidin-4-yl)ethyl)-1H-indole-3-carboxamide] had an IC50 of less than 100 nM.
For the molecule `COc1cc(C)[nH]c(=O)c1CNC(=O)c1c(C)n(C(C)C2CCNc3ccccc32)c2ccccc12` (single isomer, unassigned) [Compound 1], the half-maximal inhibitory concentration (IC50) on EZH2 (EZH2 nuc BSA Brij 1.5 (IC50)) was less than 100 nM. Moreover, the EC50 with H3K27me3 mark (Homo sapiens, HeLa, 72 h) was more than 2000 nM.
On to `COc1cc(C)[nH]c(=O)c1CNC(=O)c1c(C)n(C(C)C2CCN(CC3CC3)C(C(F)(F)F)C2)c2ccccc12` (single isomer, unassigned) [Compound 39, 1-(1-(1-(cyclopropylmethyl)-2-(trifluoromethyl)piperidin-4-yl)ethyl)-N-((4-methoxy-6-methyl-2-oxo-1,2-dihydropyridin-3-yl)methyl)-2-methyl-1H-indole-3-carboxamide], for which the IC50 on EZH2 (setting [1]) was less than 100 nM. Besides, the EC50 in the test on H3K27me3 mark (72 hrs) was more than 2000 nM.
For the molecule `COc1cc(C)[nH]c(=O)c1CNC(=O)c1c(C)n(C(C)C2CCN(C)c3ccccc32)c2ccccc12` (stereo not shown) [Compound 3, N-((4-methoxy-6-methyl-2-oxo-1,2-dihydropyridin-3-yl)methyl)-2-methyl-1-(1-(1-methyl-1,2,3,4-tetrahydroquinolin-4-yl)ethyl)-1H-indole-3-carboxamide], the IC50 at EZH2 (EZH2 nuc BSA Brij 1.5 (IC50)) was less than 100 nM.
For the molecule `CCN1CCC(C(C)n2c(C)c(C(=O)NCc3c(OC)cc(C)[nH]c3=O)c3ccccc32)CC1C(F)(F)F` (single isomer, unassigned) [Compound 10, 1-(1-(1-ethyl-2-(trifluoromethyl)piperidin-4-yl)ethyl)-N-((4-methoxy-6-methyl-2-oxo-1,2-dihydropyridin-3-yl)methyl)-2-methyl-1H-indole-3-carboxamide], the concentration for half-maximal inhibition (IC50) at EZH2 (setting [1]) was less than 100 nM. In the test on H3K27me3 mark (72 hrs), the half-maximal effective concentration (EC50) is less than 400 nM.
Consider `COc1cc(C)[nH]c(=O)c1CNC(=O)c1c(C)n(C(C)C2CCNC3CCCCC32)c2ccccc12` (stereo not shown) [Compound 4, 1-(1-(decahydroquinolin-4-yl)ethyl)-N-((4-methoxy-6-methyl-2-oxo-1,2-dihydropyridin-3-yl)methyl)-2-methyl-1H-indole-3-carboxamide], for which the IC50 at EZH2 (EZH2 nuc BSA Brij 1.5 (IC50)) was less than 100 nM. Besides, the EC50 in the test with H3K27me3 mark (Homo sapiens, HeLa, 72 h) is more than 2000 nM.
On to `COc1cc(C)[nH]c(=O)c1CNC(=O)c1c(C)n(C(C)C2CCN(CC(F)F)C(C)C2)c2ccccc12` (single isomer, unassigned) [Compound 41, 1-(1-(1-(2,2-difluoroethyl)-2-methylpiperidin-4-yl)ethyl)-N-((4-methoxy-6-methyl-2-oxo-1,2-dihydropyridin-3-yl)methyl)-2-methyl-1H-indole-3-carboxamide], for which, at EZH2 (setting [1]), the IC50 is less than 100 nM. In the test with H3K27me3 mark (72 hrs), the concentration giving a half-maximal response (EC50) is less than 400 nM.
On EZH2 (EZH2 nuc BSA Brij 1.5 (IC50)), `COc1cc(C)[nH]c(=O)c1CNC(=O)c1c(C)n(C(C)C2CCNC(C(F)F)C2)c2ccccc12` (single isomer, unassigned) [Compound 36, 1-(1-(2-(difluoromethyl)piperidin-4-yl)ethyl)-N-((4-methoxy-6-methyl-2-oxo-1,2-dihydropyridin-3-yl)methyl)-2-methyl-1H-indole-3-carboxamide] had an IC50 of less than 100 nM. The EC50 in the test on H3K27me3 mark (72 hrs) was more than 2000 nM.
For `COc1cc(C)[nH]c(=O)c1CNC(=O)c1c(C)n(C(C)C2CCN(CC(F)(F)F)C(C)C2)c2ccccc12` (single isomer, unassigned) [Compound 42, N-((4-methoxy-6-methyl-2-oxo-1,2-dihydropyridin-3-yl)methyl)-2-methyl-1-(1-(2-methyl-1-(2,2,2-trifluoroethyl)piperidin-4-yl)ethyl)-1H-indole-3-carboxamide], the IC50 against EZH2 (EZH2 nuc BSA Brij 1.5 (IC50)) is less than 100 nM. For the same molecule, in the test with H3K27me3 mark (Homo sapiens, HeLa, 72 h), the EC50 fell in the range of 400 to 2000 nM.
`COc1cc(C)[nH]c(=O)c1CNC(=O)c1c(C)n(C(C)C2CCNC(C(F)(F)F)C2)c2ccccc12` (single isomer, unassigned) [Compound 20, N-((4-methoxy-6-methyl-2-oxo-1,2-dihydropyridin-3-yl)methyl)-2-methyl-1-(1-(2-(trifluoromethyl)piperidin-4-yl)ethyl)-1H-indole-3-carboxamide] yielded an IC50 against EZH2 (EZH2 nuc BSA Brij 1.5 (IC50)) of less than 100 nM. In addition, the EC50 with H3K27me3 mark (72 hrs) lay in the range of 400 to 2000 nM.
`Cc1cc(C)c(CNC(=O)c2c(C)n(C(C)C3CCNC(C(F)(F)F)C3)c3ccccc23)c(=O)[nH]1` (single isomer, unassigned) [Compound 16, N-((4,6-dimethyl-2-oxo-1,2-dihydropyridin-3-yl)methyl)-2-methyl-1-(1-(2-(trifluoromethyl)piperidin-4-yl)ethyl)-1H-indole-3-carboxamide] registered an IC50 against EZH2 (EZH2 nuc BSA Brij 1.5 (IC50)) of less than 100 nM.
